Measured values from publication PMC12530851, “Design, synthesis, and apoptotic antiproliferative activity of novel dihydropyrimidine-5-carbonitrile/1,2,4-oxadiazole hybrids as dual EGFR/VEGFR-2 inhibitors endowed with antioxidant activity” (RSC Advances, 2025).
Read-outs that look alike come from different tables or passages of the source.

What was measured:
EGFR [1] = molecular target: T1, EGFR (Homo sapiens, UniProt P00533); test: EGFR inhibitory assay (EGFR-TK test)
Protocol: Baculoviral expression vectors including pBlueBacHis2B and pFASTBacHTc were used
5ʹ upstream to the EGFR sequence comprised a sequence that encoded (His)6. Sf-9 cells were infected for 72h for protein expression. The pellets of Sf-9 cells were solubilized in a buffer containing sodium vanadate (100 μM), aprotinin (10 μg/mL), triton (1%), HEPES
buffer(50mM), ammonium molybdate (10 μM), benzamidine HCl (16 μg/mL), NaCl (10 mM),leupeptin (10 μg/mL) and pepstatin (10 μg/mL) at 0°C for 20 min at pH 7.4, followed by centrifugation for 20 min. To eliminate the nonspecifically bound material, a Ni-NTA super flow packed column was used to pass through and wash the crude extract supernatant first with 10mM and then with 100 mM imidazole. Histidine-linked proteins were first eluted with 250 and then with 500 mM imidazole subsequent to dialysis against NaCl (50 mM), HEPES (20 mM), glycerol (10%) and 1 μg/mL each of aprotinin, leupeptin and pepstatin for 120 min. The purification was performed either at 4 °C or on ice. To record autophosphorylation level, EGFR kinase assay was carried out on the basis of DELFIA/Time-Resolved Fluorometry. The compounds were first
dissolved in DMSO absolute, subsequent to dilution to appropriate concentration using HEPES
(25 mM) at pH 7.4. Each compound (10 μL) was incubated with recombinant enzyme (10 μL, 5
ng for EGFR, 1:80 dilution in 100 mM HEPES) for 10 min at 25 °C, subsequent to the addition of
5X buffer (10 μL, containing 2 mM MnCl2, 100 μM Na3VO4, 20 mM HEPES and 1 mM DTT)
and ATP-MgCl2 (20 μL, containing 0.1 mM ATP and 50 mM MgCl2) and incubation for 1h. The
negative and positive controls were included in each plate by the incubation of enzyme either with
or without ATP-MgCl2. The liquid was removed after incubation and the plates were washed
thrice using a wash buffer. The Europium-tagged antiphosphotyrosine antibody (75 μL, 400 ng)
was added to each well followed by incubation of 1h and then washing of the plates using buffer.
The enhancement solution was added to each well and the signal was recorded at excitation and
The autophosphorylation percentage inhibition by compounds was calculated using the following equation:
calculated. The majority of signals detected by antiphosphotyrosine antibody were from EGFR because the enzyme preparation contained low impurities.

A-549 (lung cancer) = test: Antiproliferative assay, A-549; assay type: cell-based; settings: Homo sapiens, A549; A-549 lung cancer cells; read-out: Antiproliferative activity IC50 ± SEM, A-549
Description: (§1) The dose–response experiments established the IC50 values for the new compounds. The given findings were obtained from at least two distinct studies, each comprising three repeats per concentration. Appendix A (SI File) provides experimental details.[38,39]
(§2) The MTT assay[43] was utilized to assess the antiproliferative effects of compounds 10a–l on four human cancer cell lines: HT-29 (colon cancer), Panc-1 (pancreatic cancer), A-549 (lung cancer), and MCF-7 (breast cancer). […]
(§3) 4.2.2. Assay for antiproliferative effect
(§4) To explore the antiproliferative potential of compounds propidium iodide fluorescence assay was performed using different cell lines such as Panc-1 (pancreas cancer cell line), MCF-7 (breast cancer cell line), HT-29 (colon cancer cell line) and A-549 (epithelial cancer cell line), respectively. To calculate the total nuclear DNA, a fluorescent dye (propidium iodide, PI) is used which can attach to the DNA, thus offering a quick and precise technique. PI cannot pass through the cell membrane and its signal intensity can be considered as directly proportional to quantity of cellular DNA. Cells whose cell membranes are damaged or have changed permeability are counted as dead ones. The assay was performed by seeding the cells of different cell lines at a density of 3000-7500 cells/well (in 200μl medium) in culture plates followed by incubation for 24h at 37 °C in humidified 5%CO2/95% air atmospheric conditions. The medium was removed; the compounds were added to the plates at 10 μM concentrations (in 0.1% DMSO) in triplicates, followed by incubation for 48h. DMSO (0.1%) was used as control. After incubation, medium was removed followed by the addition of PI (25 μl, 50μg/mL in water/medium) to each well of the plates. At - 80 °C, the plates were allowed to freeze for 24 h, followed by thawing at 25 °C. A fluorometer (Polar-Star BMG Tech) was used to record the readings at excitation and emission wavelengths of 530 and 620 nm for each well. The percentage cytotoxicity of compounds was calculated using […]
(§5) Where ATC= Absorbance of treated cells and AC= Absorbance of control. Erlotinib was used as positive control in the assay. […]

[2] = Cell viability assay (MTT) on normal MCF-10A cells; assay type: cell-based; settings: human, MCF-10A mammary gland epithelial cells (normal cell line), MCF-10A normal cells, four-day incubation
Protocol: The impact of novel compounds 10a–l on the viability of a normal human cell line, specifically human mammary gland epithelial cells (MCF-10A), was assessed to ascertain the safety of the newly synthesized compounds. The MTT test was employed to assess the cell viability of the novel compounds after a four-day incubation with MCF-10A cells.[29,37] Refer to Appendix A for more experimental details.
The effect of new compounds 10a–l on the viability of a normal human cell line, namely human mammary gland epithelial cells (MCF-10A), was evaluated to determine the safety of the newly synthesized compounds.
4.2. Biological evaluation
4.2.1 Cell Viability assay (MTT assay)
MTT assay was performed to investigate the effect of the synthesized compounds on mammary epithelial cells (MCF-10A). The cells were propagated in medium consisting of Ham's F-12 medium/ Dulbecco's modified Eagle's medium (DMEM) (1:1) supplemented with 10% foetal calf serum, 2 mM glutamine, insulin (10 μg/mL), hydrocortisone (500 ng/mL) and epidermal growth factor (20 ng/mL). Trypsin ethylenediamine tetra acetic acid (EDTA) was used to passage the cells after every 2-3 days. 96-well flat-bottomed cell culture plates were used to seed the cells at a density of 10^4 cells mL-1. The medium was aspirated from all the wells of culture plates after 24 h followed by the addition of synthesized compounds (in 200 μL medium to yield a final concentration of 0.1% (v/v) dimethyl sulfoxide) into individual wells of the plates. Four wells were designated to a single compound. The plates were allowed to incubate at 37°C for 96 h. Afterwards, the medium was aspirated and 3-[4,5-dimethylthiazol-2-yl]-2,5-diphenyltetrazolium bromide (MTT) (0.4 mg/mL) in medium was added to each well and subsequently incubated for 3 h. The medium was aspirated and 150 μL dimethyl sulfoxide (DMSO) was added to each well. The plates were vortexed followed by the measurement of absorbance at 540 nm on a microplate reader. […]

[3] = system: four human cancer cell lines (A-549, MCF-7, Panc-1, HT-29); test: Antiproliferative assay, average over four cancer cell lines; assay type: cell-based; settings: for GI50: average IC50 across A-549, MCF-7, Panc-1, HT-29; for Reduction in antiproliferative potency relative to 10k (GI50): less potent than 10k
Protocol: The given findings were obtained from at least two distinct studies, each comprising three repeats per concentration. Appendix A (SI File) provides experimental details.[38,39] […]
as §3
To explore the antiproliferative potential of compounds propidium iodide fluorescence assay was performed using different cell lines such as Panc-1 (pancreas cancer cell line), MCF-7 (breast […]
respectively. To calculate the total nuclear DNA, a fluorescent dye (propidium iodide, PI) is used which can attach to the DNA, thus offering a quick and precise technique. PI cannot pass through the cell membrane and its signal intensity can be considered as directly proportional to quantity of cellular DNA. Cells whose cell membranes are damaged or have changed permeability are counted as dead ones. The assay was performed by seeding the cells of different cell lines at a density of 3000-7500 cells/well (in 200μl medium) in culture plates followed by incubation for 24h at 37 °C […]
The medium was removed; the compounds were added to the plates at 10 μM concentrations (in 0.1% DMSO) in triplicates, followed by incubation for 48h. DMSO (0.1%) was used as control. After incubation, medium was removed followed by the addition of PI (25 μl, 50μg/mL in water/medium) to each well of the plates. At - 80 °C, the plates were allowed to freeze for 24 h, followed by thawing at 25 °C. A fluorometer (Polar-Star BMG Tech) was used to record the readings at excitation and emission wavelengths of 530 and 620 nm for each well. The percentage cytotoxicity of compounds was calculated using […]
Where ATC= Absorbance of treated cells and AC= Absorbance of control. […]
positive control in the assay. […]

HT-29 (colon cancer) = test: Antiproliferative assay, HT-29; assay type: cell-based; settings: Homo sapiens; HT-29 colon cancer cells; read-out: Antiproliferative activity IC50 ± SEM, HT-29
Description: as §1, §2, §3, §4, §5

[4] = system: Panc-1 (pancreatic cancer); test: Antiproliferative assay, Panc-1; assay type: cell-based; settings: Homo sapiens; Panc-1 pancreatic cancer cells; read-out: Antiproliferative activity IC50 ± SEM, Panc-1
Description: as §1, §2, §3, §4, §5

MCF-7 (breast cancer) = test: Antiproliferative assay, MCF-7; assay type: cell-based, human; settings: Homo sapiens, MCF7; MCF-7 breast cancer cells; read-out: Antiproliferative activity IC50 ± SEM, MCF-7
Description: as §1, §2, §3, §4, §5

VEGFR-2 [5] = molecular target: T2, VEGFR-2 (Homo sapiens, UniProt P35968); test: VEGFR-2 inhibitory assay
T2 sequence (P35968 20-1356): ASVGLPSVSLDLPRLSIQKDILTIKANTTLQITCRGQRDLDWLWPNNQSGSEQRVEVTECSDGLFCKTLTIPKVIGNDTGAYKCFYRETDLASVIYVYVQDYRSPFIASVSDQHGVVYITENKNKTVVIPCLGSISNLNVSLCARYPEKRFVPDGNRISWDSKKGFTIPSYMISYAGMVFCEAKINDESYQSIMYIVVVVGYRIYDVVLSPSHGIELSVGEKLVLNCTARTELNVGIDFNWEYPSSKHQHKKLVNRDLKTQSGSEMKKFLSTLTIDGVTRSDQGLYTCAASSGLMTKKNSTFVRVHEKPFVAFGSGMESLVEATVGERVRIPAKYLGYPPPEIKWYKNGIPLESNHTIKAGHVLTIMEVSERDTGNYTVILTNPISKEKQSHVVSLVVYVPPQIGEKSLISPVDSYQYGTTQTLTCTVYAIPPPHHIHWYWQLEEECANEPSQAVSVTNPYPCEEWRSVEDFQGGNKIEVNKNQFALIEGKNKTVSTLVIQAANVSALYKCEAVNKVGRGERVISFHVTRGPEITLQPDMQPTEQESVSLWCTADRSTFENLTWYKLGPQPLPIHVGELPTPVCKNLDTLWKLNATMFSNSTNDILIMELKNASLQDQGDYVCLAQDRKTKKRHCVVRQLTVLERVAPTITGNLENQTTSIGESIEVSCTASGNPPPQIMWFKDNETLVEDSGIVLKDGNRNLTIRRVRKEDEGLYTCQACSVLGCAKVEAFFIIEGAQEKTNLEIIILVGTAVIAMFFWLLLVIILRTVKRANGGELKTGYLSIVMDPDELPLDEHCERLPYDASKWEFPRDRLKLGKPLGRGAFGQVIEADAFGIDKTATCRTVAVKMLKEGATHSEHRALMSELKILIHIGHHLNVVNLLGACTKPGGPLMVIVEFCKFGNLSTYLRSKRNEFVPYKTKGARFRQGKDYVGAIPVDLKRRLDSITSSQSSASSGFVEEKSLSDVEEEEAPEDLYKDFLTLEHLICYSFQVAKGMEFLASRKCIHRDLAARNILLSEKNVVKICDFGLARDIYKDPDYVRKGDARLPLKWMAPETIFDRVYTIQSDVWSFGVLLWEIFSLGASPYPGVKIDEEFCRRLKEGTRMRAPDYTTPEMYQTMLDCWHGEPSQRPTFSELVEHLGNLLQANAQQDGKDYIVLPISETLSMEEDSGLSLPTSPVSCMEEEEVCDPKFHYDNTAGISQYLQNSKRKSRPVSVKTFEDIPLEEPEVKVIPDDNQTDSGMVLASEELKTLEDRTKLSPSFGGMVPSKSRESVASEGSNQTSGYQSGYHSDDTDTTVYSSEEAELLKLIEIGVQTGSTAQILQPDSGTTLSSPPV
Protocol: The majority of signals detected by antiphosphotyrosine antibody were from EGFR because the enzyme preparation contained low impurities.
Prepare all the solutions using autoclaved, deionized water and analytical grade reagents. Prepare
and store all the reagents at room temperature (unless indicated otherwise). EDTA solution (0.5
M, pH 8.0): add 95 mL ultra-pure water to 14.612 g EDTA, adjust the pH to 8.0 using NaOH
solution, add 5 mL ultra-pure water; 1×Kinase Assay Buffer: add 25 mL HEPES solution (1 M),
water, adjust pH to 7.5 and constant volume to 500 mL using ultrapure water; 4×Stop solution (40
mM): Mix 0.8 mL of the foregoing EDTA solution, 1 mL 10×Detection Buffer and 8.2 mL ultra-
pure water; 1×Detection Buffer: Mix 1 mL 10×Detection Buffer with 9 mL water; 4×VEGFR
μM) was added to 624 μL 1×Kinase Assay Buffer and mixed; 4×ULight™-labeled JAK1
concentration 5 μM) was added to 576 μL 1×Kinase Assay Buffer and mixed; 4×ATP Solution
2×substrate/ATP Mix: 560 μL foregoing 4×ULight™-labeled JAK1 and 560 μL 4×ATP solution
and mixed (prepared before use). The assays used an ULight-labeled peptide substrate and a
Europium-W1024-labeled antiphosphotyrosine antibody. The VEGFR-2 was purchased from
Carna Biosciences, Inc. (New York, USA). The 384-well plates were obtained from PerkinElmer.
Compounds were dissolved in DMSO and diluted to 11 concentrations at a tripling rate from 2.500
5 μL 2×VEGFR-2 kinase solution (0.5 nM)
was added to 384-well plates homogeneous mixing and pre-reaction at room temperature for 30
min. Next, 2.5 μL 4×Ultra ULightTM-JAK-1(Tyr1023) Peptide (200 nM)/ATP (40 μM) was
added to the corresponding wells of a 384-well plate. Negative control: 2.5 μL/well 4×substrate/ATP mixture and 7.5 μL 1×kinase assay buffer in 384-well plate well. Positive control:
μL/well 2×VEGFR-2 kinase solution was added to the 384-well plate, The final concentration of DMSO in the mixing system was 4%. After incubation at room temperature and dark for 60 min, 5 μL 4×stop solution was added to corresponding wells to react for 5 min and then 5 μL 4×detection mix was added to the corresponding wells of a 384-well plate. The mixture was centrifugally mixed and stayed for 60 min at room temperature for color development. The plate
was read using an Envision plate reader. The inhibition rate (%) = (positive well reading-
compound well reading)/(positive well reading-negative well reading)×100. The corresponding IC50 values were calculated using GraphPad Prism 5.0.

EGFR [6] = molecular target: T1, EGFR; design: 645–1186; His6 (N); made in house; host or cells: Sf-9 insect cells (baculovirus; pBlueBacHis2B and pFASTBacHTc vectors); settings: cited from earlier work
VEGFR-2 [7] = molecular target: T2, VEGFR-2; design: purchased Carna Biosciences, Inc; settings: cited from earlier work
BRAF^V600E = system: BRAF^V600E; design: method as in PMID 39281035; settings: cited from earlier work
mutant EGFR (EGFR^T790M) = system: mutant EGFR (EGFR^T790M); design: method as in PMID 39281035; settings: cited from earlier work
caspase-8 = test: Caspase-8 activation assay in MCF-7 cells; assay type: cell-based, human
Protocol: (§6) Compounds10k and 10l were tested as caspases-3, 8, 9, Bax and p53 activators and as down-regulators of the anti-apoptotic protein Bcl2 against the MCF-7 breast cancer cell line.[41] Appendix A gives more details.
(§7) To elucidate the apoptotic processes of compounds 10k and 10l, whether via the intrinsic or extrinsic pathway, their impacts on caspase-8 and caspase-9 were evaluated. […] This signifies the activation of both intrinsic and extrinsic pathways (Table 5).
(§8) 4.2.6. Caspase-8/9 activation assay
(§9) Cells were obtained from American Type Culture Collection, cells were grown in RPMI 1640 containing 10% fetal bovine serum at 37°C, stimulated with the compounds to be tested for caspase 8/9, and lysed with Cell Extraction Buffer. This lysate was diluted in Standard Diluent Buffer over the range of the assay and measured for human active caspase-8/9 content. (Cells are Plated in a density of 1.2 – 1.8 × 10,000 cells/well in a volume of 100µl complete growth medium + 100 ul of the tested compound per well in a 96-well plate for 24 hours before the enzyme assay). The absorbance of each microwell was read on a spectro-photometer at 450 nm. […]

caspase-9 = test: Caspase-9 activation assay in MCF-7 cells; assay type: cell-based, human
Protocol: as §6, §7, §8, §9

caspase-3 = test: Caspase-3 activation assay in MCF-7 cells; assay type: cell-based, human; settings: vs untreated control

T1 sequence (P00533 669-1210): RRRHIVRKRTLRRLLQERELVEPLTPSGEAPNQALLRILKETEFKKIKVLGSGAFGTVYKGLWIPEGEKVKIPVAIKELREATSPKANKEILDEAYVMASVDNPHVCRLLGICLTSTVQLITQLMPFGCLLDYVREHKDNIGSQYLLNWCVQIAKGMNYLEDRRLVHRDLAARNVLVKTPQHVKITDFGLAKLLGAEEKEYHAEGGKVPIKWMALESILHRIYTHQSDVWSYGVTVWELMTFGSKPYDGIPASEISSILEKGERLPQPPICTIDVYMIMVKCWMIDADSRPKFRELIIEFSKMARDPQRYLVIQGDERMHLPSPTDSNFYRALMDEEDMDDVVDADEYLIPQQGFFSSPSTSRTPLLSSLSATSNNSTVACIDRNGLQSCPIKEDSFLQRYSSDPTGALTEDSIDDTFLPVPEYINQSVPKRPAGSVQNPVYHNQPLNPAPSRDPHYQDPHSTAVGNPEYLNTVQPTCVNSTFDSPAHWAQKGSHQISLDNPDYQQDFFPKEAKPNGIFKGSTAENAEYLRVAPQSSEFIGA

Compound	IC50 (EGFR [1]) [µM]	IC50 (A-549 (lung cancer)) [µM]	viability at 96 h, 50 µM [2] [%]	GI50 ([3]; Homo sapiens) [µM]	IC50 (HT-29 (colon cancer)) [µM]	IC50 [4] [µM]	IC50 (MCF-7 (breast cancer)) [µM]	IC50 (VEGFR-2 [5]) [µM]	also measured
N#Cc1c(-c2ccncc2)nc(SCc2nc(-c3ccc(Cl)cc3)no2)[nH]c1=O [Compound 10e, 2-(((3-(4-Chlorophenyl)-1,2,4-oxadiazol-5-yl)methyl)thio)-6-oxo-4-(pyridin-4-yl)-1,6-dihydropyrimidine-5-carbonitrile]	0.065 ± 0.004	0.03 ± 0.002	90	0.028	0.03 ± 0.002	0.028 ± 0.001	0.025 ± 0.001	0.032 ± 0.002	Reduction in antiproliferative potency relative to 10k (GI50) [3]: 1.3 fold
N#Cc1c(-c2ccc(Cl)cc2)nc(SCc2nc(-c3ccc(Cl)cc3)no2)[nH]c1=O [Compound 10h, 2-(((3-(4-Chlorophenyl)-1,2,4-oxadiazol-5-yl)methyl)thio)-4-(4-chlorophenyl)-6-oxo-1,6-dihydropyrimidine-5-carbonitrile]	0.079 ± 0.005	0.035 ± 0.002	92	0.031	0.036 ± 0.002	0.035 ± 0.002	0.031 ± 0.002	0.043 ± 0.003	GI50 [3]: 0.034 µM; Reduction in antiproliferative potency relative to 10k (GI50) [3]: 1.6 fold
COc1ccc(-c2noc(CSc3nc(-c4ccc(Cl)cc4)c(C#N)c(=O)[nH]3)n2)cc1 [Compound 10i, 2-(((3-(4-Methoxyphenyl)-1,2,4-oxadiazol-5-yl)methyl)thio)-4-(4-chlorophenyl)-6-oxo-1,6-dihydropyrimidine-5-carbonitrile]	0.071 ± 0.005	0.033 ± 0.002	91	0.034	0.034 ± 0.001	0.03 ± 0.001	0.028 ± 0.001	0.039 ± 0.002	GI50 [3]: 0.031 µM
COc1cc(-c2noc(Cn3cc(-c4ccccc4)nn3)n2)cc(OC)c1OC [Compound III]	–	–	–	–	–	–	–	–	IC50 (EGFR [6]): 0.076 µM; IC50 (VEGFR-2 [7]; read-out: VEGFR-2 IC50): 0.0024 µM
CC(=O)c1ccc(NC(=O)CSC2=NC(=O)C(C#N)C(c3ccccc3)N2)cc1 (stereo not drawn) [Compound II]	–	–	–	–	–	–	–	–	IC50 (VEGFR-2 [7]; read-out: VEGFR-2 kinase IC50): 0.199 µM
O=c1c2ccccc2nc(SCc2nc(-c3ccc(Cl)cc3)no2)n1-c1ccccc1 [Compound IV]	–	–	–	–	–	–	–	–	IC50 (BRAF^V600E): 0.048 µM; Efficacy against mutant EGFR (EGFR^T790M) (mutant EGFR (EGFR^T790M)): considerable efficacy
COc1ccc(-c2csc(NC(=O)CSc3nc(-c4ccc(OC)cc4)c(C#N)c(=O)[nH]3)n2)cc1 [Compound I]	–	–	–	–	–	–	–	–	IC50 (EGFR [6]; in vitro EGFR inhibitory assay): 0.19 ± 0.2 µM
CN[C@@H]1C[C@H]2O[C@@](C)([C@@H]1OC)n1c3ccccc3c3c4c(c5c6ccccc6n2c5c31)C(=O)NC4 [Staurosporine, reference compound]	–	–	–	–	–	–	–	–	Caspase-8 Conc (caspase-8): 1.90 ± 0.10 ng/mL; Caspase-8 Fold change (caspase-8; vs untreated control): 19.00 fold; Caspase-9 Conc (caspase-9): 20 ± 1 ng/mL; Caspase-9 Fold change (caspase-9; vs untreated control): 20 fold; Caspase-3 Fold change (caspase-3): 7.00 fold
